Results taken from publication PMC9057582, “HIF inhibitor 32-134D eradicates murine hepatocellular carcinoma in combination with anti-PD1 therapy” (The Journal of Clinical Investigation, 2022).

Tests used:
[1] = tested on: HIF target genes in Hep3B cells; test: RT-qPCR of endogenous HIF target gene expression in Hep3B cells; type: cell-based, human
Text: Based on this hit, we synthesized analogs in which either halogen substitutions to the indole groups were altered or the central thiazole was replaced by imidazole, isoxazole, oxadiazole, oxazole, pyrazinone, pyridazine, pyrazine, pyrazole, pyridine, thiadiazole, triazine, or triazole. […] We focused on analyzing the effect of the bis-bromoindole thiazole 32-134D and the bis-indole thiadiazole 33-063 on endogenous HIF target gene expression in Hep3B cells. […] For comparison, we tested the effect of PT2385, which inhibited EPO, NDRG1, ANGPTL4, and VEGFA expression but had no effect on CA9, which is consistent with its HIF-2–selective mechanism of action ([44]). None of the compounds had any effect on RPL13A expression, which is neither induced by hypoxia nor regulated by HIFs (Supplemental Figure 2D).
Human Hep3B and mouse Hepa1-6 cells were purchased from ATCC and grown in high-glucose (4.5 mg/mL) Dulbecco’s modified Eagle’s medium supplemented with 10% (vol/vol) fetal bovine serum and 1% penicillin/streptomycin at 37°C in a 5% CO2/95% air incubator (Supplemental Table 6). Human cell line identity was authenticated by analysis of short tandem repeats, and all cell lines were maintained mycoplasma free, using PCR-based assays conducted at the Johns Hopkins University Genetic Resources Core Facility (JHU GRCF). Cells were subjected to hypoxia in a controlled atmosphere chamber (PLAS Labs) with ambient gas mixture containing 1% O2 and 5% CO2.
RNA was extracted using TRIzol Reagent. Quantitative real-time PCR was conducted using SYBR Green PCR Master Mix and reactions were run using a Bio-Rad thermal cycler. Primer sequences and reagent sources are listed in Supplemental Table 5. The mRNA expression of target genes was normalized to the expression of 18S rRNA and the fold change (FC) was calculated based on the threshold cycle (Ct) as FC = 2^–Δ(ΔCt), where ΔCt = Cttarget gene – Ct18S rRNA and Δ(ΔCt) = ΔCttreatment – ΔCtcontrol. For RNA-seq, total RNA was isolated and treated with DNase (Qiagen). The JHU GRCF High-Throughput Sequencing facility prepared libraries and performed RNA-seq. The RNA-seq data were processed and interpreted using Genialis Expressions software (https://www.genialis.com/expressions/). An automated data analysis pipeline run in the Genialis platform consisted of the following: Sequence quality checks were performed on raw and trimmed reads with FastQC. Bbduk was used to trim adapters and filter out poor quality reads. Trimmed reads were then mapped to the STAR index (ENSEMBL 100) reference genome using the STAR ([93]) aligner. Gene expression levels were quantified with featureCounts ([94]), and differential gene expression analyses were performed with DESeq2 ([95]). […] Differential expression was determined with an FDR of less than 0.05 and mRNA FC of greater than 1.5 to identify hypoxia-induced genes and genes inhibited by 32-134D. Data used in this study have been deposited in the NCBI Gene Expression Omnibus database (GEO GSE195997).
Supplemental Figure 2. Effect of 32-134D on gene expression in Hep3B cells. (A-D) Hep3B cells were exposed to 20% O2 in the presence of vehicle (first bar; no fill) or 1% O2 in the presence of: vehicle (blue bar) or the indicated concentration of 32-134D (bars with red fill) or 33-063 (bars with green fill), or PT2385 (bars with brown fill) for 24 hours and the indicated mRNAs were quantified by reverse transcription and quantitative real-time PCR (qPCR). Data are presented as mean + SEM (n = 3). *p < 0.05 vs white; **p < 0.01 vs blue (ANOVA with Bonferroni post-test). […]
(G-H) Analysis of HIF-1a (G) and HIF-2a (H) […]
mRNA expression in Hep3B cells exposed to vehicle or 32-134D at 20% or 1% O2 for 24

[2] = tested on: Hepa1-6 tumors; test: Intratumoral mRNA (RT-qPCR, RT-qPCR array) and protein (ELISA) expression in Hepa1-6 tumors; type: in vivo, C57L mice
Experimental: By contrast, the expression of mRNAs encoding the chemokine CXCL1 and interleukins IL-6 and IL-10, which recruit/activate TAMs and/or MDSCs (Supplemental Table 4), was inhibited by 32-134D treatment (P < 0.05; Figure 6D).
Figure 6 Effect of 32-134D on intratumoral gene expression. (A–D) C57L mice were injected with Hepa1-6 HCC cells subcutaneously and when tumors reached a volume of 200 mm^3, the mice were treated with vehicle (blue bars) or 32-134D (40 mg/kg; red bars) by daily intraperitoneal injection for 8 days. The tumors were harvested and mRNA was quantified by RT-qPCR and normalized to blue (mean ± SEM, n = 4). *P < 0.05 versus blue (ANOVA with Bonferroni’s post hoc test). (E) Effect of 32-134D on intratumoral expression of cytokines and chemokines. Total RNA isolated from tumors of 32-134D–treated versus vehicle-treated mice (n = 3 each) was analyzed using an RT-qPCR array and the ratio of mean expression (32-134D/vehicle) was determined. mRNAs with a significant difference between groups (P < 0.05, Student’s t test) are annotated.
Figure 7 Effect of 32-134D on intratumoral expression of immunoregulatory proteins. (A–H) Lysates prepared from tumors of 32-134D–treated versus vehicle-treated mice were subjected to ELISA for secreted proteins mediating antitumor immunity (CXCL2, CXCL9, CXCL10) or immunosuppression (CXCL1, IL-6, IL-10, VEGFA). The data are presented as mean ± SEM (n = 4 each). *P < 0.05 (Mann-Whitney test).
Tumors were homogenized in ice-cold PBS supplemented with 1% Triton X-100 and PIs, centrifuged at 10,000g for 20 minutes to pellet debris, and the supernatant was collected for ELISA using commercial kits (Supplemental Table 6). Optical density was obtained at 450 nm (corrected for readings at 570 nm) using the VICTOR Nivo plate reader. Sample protein concentration was calculated by linear regression from a standard curve.
Total RNA from Hepa1-6 tumors was analyzed using the RT^2 Profiler PCR Array of Mouse Cytokines and Chemokines (Supplemental Table 6) according to the manufacturer’s instructions.

[3] = RT-qPCR array of 84 mRNAs, P < 0.05
[4] = RT-qPCR, 40 mg/kg, 8 days, P < 0.05

Brc1ccc2c(-c3csc(-c4c[nH]c5c(Br)cccc45)n3)c[nH]c2c1 [Compound 32-134D]
hypoxia-induced ANGPTL4, VEGFA, NDRG1 and EPO mRNA expression ([1]; Hep3B cells, 1% O2, 24 hours): significantly inhibited
hypoxia-induced CA9 mRNA expression (activated by HIF-1 only) ([1]; Hep3B cells, 1% O2, 24 hours): significantly inhibited
HIF-1α or HIF-2α mRNA expression ([1]; Hep3B, 24 hours): no effect
CXCL1, IL-6, IL-10, and VEGFA protein in tumor lysates ([2]; ELISA): decreased levels
CXCL2, CXCL9, and CXCL10 protein in tumor lysates ([2]; ELISA, P < 0.05): significantly increased levels
number of cytokine/chemokine mRNAs with decreased expression [2, 3]: 40 mRNAs
number of cytokine/chemokine mRNAs with increased expression [2, 3]: 5 mRNAs
tumor expression of CXCL1, IL-6 and IL-10 mRNA [2, 4]: inhibited
tumor expression of CXCL9, CXCL10, and IFN-γ mRNA [2, 4]: increased
tumor mRNAs encoding angiogenic factors (ANGPTL4, EPO, PGF, VEGFA) and immunosuppression proteins (B7H4, CD47, CD73, PDL1, SLC2A1, HAVCR2, CD70, LDHA, ENTPD1, CA9) [2, 4]: significantly decreased
